Data: patent EP0746294B1, “ABSORPTION ENHANCERS FOR TOPICAL PHARMACEUTICAL FORMULATIONS” (ODONTEX, INC., priority 1993, dated 1995)
Where two headings read alike, the source gives them in different places.

Assays:
[1] = n-octanol/pH 7.0 buffer; cited from earlier work
porcine esterase = assay: Biodegradability of the enhancer in the presence of porcine esterase (HPLC disappearance of enhancer peak); format: in vitro ADME; conditions: 32°C, pH 7.0
Experimental: A 0.1 ml aliquot of porcine esterase (235 units per mg protein) was diluted to 100 ml with pH 7.0 phosphate buffer. The enhancer solution was prepared by dissolving -12 mg (-0.045 mmoles) of the enhancer in 10 ml acetonitrile. An aliquot of 100 µl of this solution was transferred into a 10 ml volumetric flask. 9.8 ml of pH 7.0 buffer and 100 µl diluted esterase solution were added. The mixture was kept in a water bath at 32°C with constant stirring. The disappearance of the enhancer peak was monitored by HPLC. The absorbance wavelength was 204 nm. The solvent system was a mixture of acetonitrile and 0.02 M aqueous sodium hexanesulfonate (7:4) with a flow rate of 0.9 ml/min. The retention time of DAIPD was 3.95 min. The kinetic runs were done in triplicate.
The existence of esterase activity has been reported in shed snake skin (Nghiem, B.T., and Higuchi, T., Esterase activity in snake skin, Int. J. Pharm. 44: 125-130, 1988) . To confirm the biodegradability of DAIPD, its fragmentation in the presence of porcine esterase was examined. […] Esterase-catalyzed biodegradability of the enhancer is therefore confirmed. […] (Hirvonen, J., Paronen, P., and Urtti, A., Reversible enhancement of transdermal propranolol by dodecyl N,N-dimethylamino acetate, 18th International Symposium on Controlled Release of Bioactive Materials, July 8-11, 1991, Amsterdam, p 31).

[2] = Penetration of drugs through shed snake skin pretreated with enhancer (Franz diffusion cell, HPLC); conditions: for RE (Relative enhancement compared to Azone®) / R.E. (Relative enhancement): 32°C; for R.E. (Relative enhancement): pH 7.0, relative to control (=1)
Experimental: The penetration promoting activity of DAIPD was compared to that of Azone®, taken as a typical enhancer, using shed snake skin as a model membrane. […] The permeants were selected to provide examples of basic drugs (clonidine), neutral drugs (hydrocortisone) and acidic drugs (indomethacin).
Shed snake skins were prepared as previously reported (Büyüktimkin, S., Büyüktimkin, N., and Rytting, J.H., Synthesis and enhancing effect of dodecyl 2-(N,N-dimethylamino) propionate on the transepidermal delivery of indomethacin, clonidine, and hydrocortisone, Pharm. Res., 10: 1632-1637, 1993) and as described in U.S. Patents No. 4,980,378 and No. 5,082,866, the disclosures of which are incorporated herein by reference. Shed snake skins were stored at -20°C. Before the experiment they were allowed to come to room temperature at least 12 hours before use. To reduce the variability of results, pieces cut from the same whole snake skin were used for each set of experiments
Indomethacin, clonidine, and hydrocortisone were assayed by HPLC procedures as described earlier; see Büyüktimkin et al., (1993), above.
Pieces of shed snake skin (approximately 3 x 3 cm) were pretreated with 15 µl of enhancer (divided into three 5 µl portions) 2 hr before the experiment. After mounting the skin on top of a Franz receptor cell filled with pH 7.0 (0.1 M) phosphate buffer, the donor cell was clamped on the top of the receptor cell. An aliquot of 0.5 ml of a suspension of hydrocortisone or indomethacin, prepared by suspending 50 mg or 25 mg of the drugs respectively, in 25 ml of the same buffer and stirring for 24 hr at 32°C, or a solution of clonidine (2%) in the same buffer were added to the donor cell. The solution in the receptor compartment was stirred by a magnetic stirrer. At appropriate time intervals samples were withdrawn from the receptor compartment and analyzed by HPLC.

[3] = cited from earlier work

## Clc1cccc(Cl)c1N=C1NCCN1 [clonidine]
[1]
  log P: 0.4

## COc1ccc2c(c1)c(CC(=O)O)c(C)n2C(=O)c1ccc(Cl)cc1 [indomethacin]
[1]
  log P: 1.2

## CCCCCCCCCCCC(=O)OC(C)CN(C)C (stereo not shown) [DAIPD, 1-(N,N-dimethylamino)-2-propanol dodecanoate]
Porcine esterase; pig, porcine esterase in phosphate buffer, degradation
  half-life at 45 µM: 1.32 h
Porcine esterase; pseudo first order degradation
  kobs: 0.0087 min⁻¹
[2]; Clonidine
  RE (Relative enhancement compared to Azone®): approximately two-fold
[2]; Hydrocortisone
  RE (Relative enhancement compared to Azone®): approximately two-fold
[2]; Indomethacin
  RE (Relative enhancement compared to Azone®): approximately equal to that of Azone®
[2]; clonidine
  R.E. (Relative enhancement): 27
[2]; hydrocortisone
  R.E. (Relative enhancement): 88
[2]; indomethacin
  R.E. (Relative enhancement): 53
[2]; permeation of Clonidine, standard deviation in brackets
  Lag times: No lag time enhancement was found

## CCCCCCCCCCCCOC(=O)CN(C)C [DDAA, dodecyl N,N-dimethylamino acetate]
[3]; after 4 days
  enhancement of transdermal delivery of propranolol following pretreatment: no longer enhanced

## CCCCCCCCCCCCN1CCCCCC1=O [Azone®, 1-dodecylazacycloheptane-2-one]
[2]; Clonidine
  RE (Relative enhancement compared to Azone®): 1
[2]; Hydrocortisone
  RE (Relative enhancement compared to Azone®): 1
[2]; Indomethacin
  RE (Relative enhancement compared to Azone®): 1
[2]; Prazosin (45% ethanolic solution)
  RE (Relative enhancement compared to Azone®): 1
[2]; Prostaglandin E1
  RE (Relative enhancement compared to Azone®): 1
[2]; clonidine
  R.E. (Relative enhancement): 13
[2]; hydrocortisone
  R.E. (Relative enhancement): 41
[2]; indomethacin
  R.E. (Relative enhancement): 46
[3]; after a week
  enhancement of transdermal delivery of propranolol following pretreatment: the enhancement still existed

## C[C@]12CCC(=O)C=C1CC[C@@H]1[C@@H]2[C@@H](O)C[C@@]2(C)[C@H]1CC[C@]2(O)C(=O)CO [hydrocortisone]
[1]
  log P: 0.8
